Experimental findings from patent US11524938B2, “Aromatic sulfonamide derivatives” (Bayer Pharma Aktiengesellschaft, priority 2016, dated 2022) are described below.

Holding throughout (assay type): cell-based
One assay addresses T1, mouse P2X4 (Mus musculus, UniProt Q9JJX6).
T1 sequence (Q9JJX6 1-388): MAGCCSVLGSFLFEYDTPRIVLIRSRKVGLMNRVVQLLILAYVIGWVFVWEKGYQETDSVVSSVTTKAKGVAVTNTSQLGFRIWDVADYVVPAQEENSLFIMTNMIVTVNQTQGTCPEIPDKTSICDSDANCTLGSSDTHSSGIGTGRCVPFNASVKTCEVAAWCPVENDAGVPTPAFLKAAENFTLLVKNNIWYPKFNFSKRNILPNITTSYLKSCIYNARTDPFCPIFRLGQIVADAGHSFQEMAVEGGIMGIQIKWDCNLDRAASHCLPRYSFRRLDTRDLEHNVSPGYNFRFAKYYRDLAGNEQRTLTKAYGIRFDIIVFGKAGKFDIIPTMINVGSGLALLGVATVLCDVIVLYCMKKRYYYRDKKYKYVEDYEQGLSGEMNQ
Kind of assay: FLIPR assay, mouse P2X4 1321N1 Astrocytoma cells. As to conditions: agonist Mg-ATP 0.5 μM (EC80). How it is done: (§1) 1321N1 Astrocytoma cells stably expressing human P2X4 or rat P2X4 or mouse P2X4 were plated in Collagen I TC-treated microplate at a seeding density of 10000 cells/well and incubated overnight. P2X4 function was assessed by measuring intracellular calcium changes using the calcium-chelating dye Fluo8-AM (Molecular Devices) on a fluorescent imaging plate reader (FLEX/FLIPR station; Molecular Devices). On the day of the assay, the medium was removed and the cells were incubated for 30 min at 37 °C and 5% CO2 in 30 μL of dye buffer (Hank's balanced salt solution, 10 mM HEPES, 1.8 mM CaCl2, 1 mM MgCl2, 2 mM probenecid, 5 mM D-glucose monohydrate, 5 μM Fluo8-AM, pH=7.4). Compounds diluted in probenecid buffer (Hank's balanced salt solution, 10 mM HEPES, 1.8 mM CaCl2, 1 mM MgCl2, 2 mM probenecid, 5 mM D-glucose monohydrate, pH=7.4) were added in a volume of 10 μL and allowed to incubate for 30 min at room temperature. The final assay DMSO concentration was 0.25%. The agonist, Mg-ATP (Sigma), was added in a volume of 10 μL at a concentration representing the EC80 value. EC80 was determined to be 0.5 μM for human and mouse P2X4 and 5 μM for rat P2X4. The fluorescence was measured for an interval of 120 sec at 2 sec intervals. The excitation and emission wavelengths used to monitor fluorescence were 470-495 nm and 515-575 nm, respectively. The data was analyzed based on the increase in peak relative fluorescence units (RFU) compared to the basal fluorescence and the data was normalized to the agonist control. The compounds were tested in triplicates per plate and mean values were plotted in Excel XLFit to determine IC50 values, percentage of maximal inhibition and the Hill coefficients.

Assay [1] deals with T2, human P2X4 (Homo sapiens, UniProt Q99571).
T2 sequence (Q99571 1-388): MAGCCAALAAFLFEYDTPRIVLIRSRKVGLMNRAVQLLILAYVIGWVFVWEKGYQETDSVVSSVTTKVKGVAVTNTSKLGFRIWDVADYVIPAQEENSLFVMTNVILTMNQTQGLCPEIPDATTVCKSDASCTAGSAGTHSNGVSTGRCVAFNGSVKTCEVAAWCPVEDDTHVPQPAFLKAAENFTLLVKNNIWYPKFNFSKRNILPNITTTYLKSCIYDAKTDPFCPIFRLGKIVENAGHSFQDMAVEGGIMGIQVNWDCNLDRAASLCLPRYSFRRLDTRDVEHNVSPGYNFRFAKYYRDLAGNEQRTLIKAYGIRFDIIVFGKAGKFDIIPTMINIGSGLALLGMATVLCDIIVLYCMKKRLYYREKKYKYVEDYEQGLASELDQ
Put plainly: Human P2X4 HEK Cell FLIPR Assay. As to conditions: HEK293, HEK293 cells, agonist Bz-ATP at EC80; percentage of maximal inhibition; read-out: Human P2X4 HEK Cells (FLIPR Assay) avg Efficacy [%]. The gist of the method:
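Calcium flux read by FLIPR for 120 sec after Bz-ATP challenge at EC80 (established each assay day), following 30 min room-temperature compound preincubation in dye-loaded stable human P2X4 HEK293 cells. Peak RFU over basal normalized to agonist control; IC50, maximal inhibition and Hill coefficient from triplicate means.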

Assay [2] has as its target T2, human P2X4. Kind of assay: FLIPR assay, human P2X4 1321N1 Astrocytoma cells. As to conditions: agonist Mg-ATP 0.5 μM (EC80). How it is done:
as §1

Turning to `N#Cc1cnn(-c2ccc(NC(=O)Cc3ccccc3Cl)cc2S(N)(=O)=O)c1` [Example 39, 2-(2-Chlorophenyl)-N-[4-(4-cyano-1H-pyrazol-1-yl)-3-sulfamoylphenyl]acetamide], the “Mouse P2X4 1321N1 Astrocytoma Cells (FLIPR Assay) avg Efficacy [%]” value on mouse P2X4 was determined as 87%. Besides, the Emax on human P2X4 [1] was 96%. For the same molecule, at human P2X4 [2], the “Human P2X4 1321N1 Astrocytoma Cells (FLIPR Assay) avg Efficacy [%]” value is given as 83%.
In the case of `NS(=O)(=O)c1cc(NC(=O)Cc2ccccc2Cl)ccc1-c1cnn(C(F)F)c1` [Example 326, 2-(2-Chlorophenyl)-N-{4-[1-(difluoromethyl)-1H-pyrazol-4-yl]-3-sulfamoylphenyl}acetamide], the “Mouse P2X4 1321N1 Astrocytoma Cells (FLIPR Assay) avg Efficacy [%]” value on mouse P2X4 was 87%. In addition, the Emax on human P2X4 [1] is 95%. On human P2X4 [2], the “Human P2X4 1321N1 Astrocytoma Cells (FLIPR Assay) avg Efficacy [%]” value is recorded as 80%.
